Experimental data reported in publication PMC3775947 (Clinical lymphoma, myeloma & leukemia, 2013).
Where two headings read alike, the source gives them in different places.

Columns and labels:
patients with AML [1] = conditions: cited from earlier work; for Rates of response: LDAC or decitabine alone
[2] = human, in vivo
[3] = Plasma pharmacokinetics of barasertib, barasertib-hQPA and LDAC; conditions: for Steady-state plasma concentrations observed from, after start of infusion: 7-day continuous iv infusion of barasertib, Day 1, maintained until EOI; for AUC0–EOI, barasertib-hQPA / AUC0–t, barasertib-hQPA / Css, barasertib-hQPA / Css, barasertib: geometric mean (CV%)
[4] = tested on: elderly patients with newly diagnosed AML; experiment: Phase I dose escalation: dose-limiting toxicities and maximum tolerated dose; assay type: in vivo, human
[5] = tested on: elderly patients with newly diagnosed AML; experiment: AML response assessed by investigators; assay type: in vivo, human
[6] = tested on: elderly patients with newly diagnosed AML
patients with AML [7] = conditions: cited from earlier work
[8] = plasma, barasertib 800 mg + LDAC 400 mg, n=6
[9] = plasma, barasertib 1000 mg + LDAC 400 mg, n=13
[10] = plasma, barasertib 1200 mg + LDAC 400 mg, n=3
[11] = all patients, barasertib + LDAC, n=22
[12] = barasertib 800 mg + LDAC 400 mg, n=6
[13] = barasertib 1000 mg + LDAC 400 mg, n=13
[14] = barasertib 1200 mg + LDAC 400 mg, n=3
[15] = Total, barasertib 800-1200 mg + LDAC 400 mg, n=22
[16] = combination treatment barasertib + LDAC
[17] = overall, barasertib + LDAC, n=22

## Nc1ccn([C@@H]2O[C@H](CO)[C@@H](O)[C@@H]2O)c(=O)n1 [LDAC, cytosine arabinoside]
Patients with AML [1]; LDAC monotherapy
  Infection frequency: 45%
Patients with AML [1]
  Rates of response: ~20%
[2]; 800 mg
  AUC0–8 ratio, Day 7:Day10, LDAC: 1.1 (14.6) ng.h/mL
[2]; 1000 mg
  AUC0–8 ratio, Day 7:Day10, LDAC: 1.2 (24.2) ng.h/mL
[2]; 1200 mg
  AUC0–8 ratio, Day 7:Day10, LDAC: 0.79 (105.7) ng.h/mL
[2]; sc, 20 mg
  Time of peak plasma concentrations (Cmax) post administration: 0.25 to 1 h
  t½, monophasic elimination: 1 to 2 h

## CCN(CCO)CCCOc1ccc2c(Nc3cc(CC(=O)Nc4cccc(F)c4)[nH]n3)ncnc2c1 [Barasertib-hQPA, barasertib hydroxy-QPA]
[3]
  Steady-state plasma concentrations observed from, after start of infusion: 24 h
[3]; 28-day cycles
  Accumulation: Minimal accumulation
[3]; 800-1200 mg, trend, low patient numbers
  Barasertib-hQPA exposure (AUC and Css) versus barasertib dose: increase more than proportionally
[3]; barasertib 1000 mg cohort, range 23.4–43.3
  Clearance rate, geometric mean: 30.5 L/h
[3]; barasertib 1000 mg cohort, range 509–1050
  Volume of distribution at steady state, geometric mean: 713 L
[3]; during 7-day infusion
  Exposure to barasertib-hQPA during the infusion relative to that of barasertib: approximately four-fold
[3]; following EOI, biphasic elimination
  Terminal phase t½: 84 to 108 h
[3]; plasma, LLOQ 0.25 ng/mL
  Detected in samples post EOI up to and including: ≤ 336 h
[3]; [8]
  AUC0–EOI, barasertib-hQPA: 23240 (14.9) ng.h/mL
  AUC0–t, barasertib-hQPA: 24040 (3.4) ng.h/mL
  Css, barasertib-hQPA: 147.3 (13.9) ng/mL
[3]; [9]
  AUC0–EOI, barasertib-hQPA: 26860 (29.8) ng.h/mL
  AUC0–t, barasertib-hQPA: 32840 (23.1) ng.h/mL
  Css, barasertib-hQPA: 170.2 (27.4) ng/mL
[3]; [10]
  AUC0–EOI, barasertib-hQPA: 37510 (26.6) ng.h/mL
  AUC0–t, barasertib-hQPA: 41850 (28.2) ng.h/mL
  Css, barasertib-hQPA: 249.2 (21.0) ng/mL

## Nc1ncn([C@H]2C[C@H](O)[C@@H](CO)O2)c(=O)n1 [decitabine]
Patients with AML [1]
  Rates of response: ~20%

## CCN(CCCOc1ccc2c(Nc3cc(CC(=O)Nc4cccc(F)c4)n[nH]3)ncnc2c1)CCOP(=O)(O)O [Barasertib]
[4]; barasertib 1200 mg + LDAC
  Tolerability of dose level: non-tolerated
[4]; in vivo
  DLTs reported: No DLTs
[3]
  Steady-state plasma concentrations observed from, after start of infusion: 24 h
[3]; plasma, LLOQ 0.25 ng/mL
  Time following EOI at which levels were generally undetectable: 2 h
[3]; [8]
  Css, barasertib: 46.7 (55.8) ng/mL
[3]; [9]
  Css, barasertib: 44.4 (55.5) ng/mL
[3]; [10]
  Css, barasertib: 64.9 (67.4) ng/mL
[5]; all patients, barasertib + LDAC, n=10/22
  Overall response rate (International Working Group criteria; by investigator opinion): 45%
[5]; [11]
  Complete response with incomplete recovery of neutrophils and/or platelets, patients: 9%
  Partial response, patients: 9%
[5]; [12]
  Best clinical response: CR (complete response): 2 n
  Best clinical response: CRi (complete response with incomplete recovery of neutrophils and/or platelets): 0 n
  Best clinical response: ORR (overall response rate): 3 (50) n (%)
  Best clinical response: PR (partial response): 1 n
[5]; [13]
  Best clinical response: CR (complete response): 3 n
  Best clinical response: CRi (complete response with incomplete recovery of neutrophils and/or platelets): 2 n
  Best clinical response: ORR (overall response rate): 6 (46) n (%)
  Best clinical response: PR (partial response): 1 n
[5]; barasertib 1000 mg cohort + LDAC, 6/13 patients
  Response rate: 46%
[5]; [14]
  Best clinical response: CR (complete response): 1 n
  Best clinical response: CRi (complete response with incomplete recovery of neutrophils and/or platelets): 0 n
  Best clinical response: ORR (overall response rate): 1 (33) n (%)
  Best clinical response: PR (partial response): 0 n
[5]; barasertib + LDAC, n=7
  Complete response, patients with adverse cytogenetic risk: 14%
[5]; barasertib + LDAC, n=9
  Complete responses (CR or CRi), patients with intermediate risk cytogenetics: 44%
[6]; MTD of barasertib 1000 mg + LDAC
  Grade ≥3 febrile neutropenia, patients: 69%
[6]; [15]
  Alopecia, AE (any cause; all grades): 6 (27) n (%)
  Anemia, grade ≥3 adverse event: 2 (9) n (%)
  Any AE (any cause; all grades): 22 (100) n (%)
  Any grade ≥3 AE: 21 (96) n (%)
  Confusional state, AE (any cause; all grades): 5 (23) n (%)
  Constipation, AE (any cause; all grades): 6 (27) n (%)
  Cough, AE (any cause; all grades): 4 (18) n (%)
  Decreased appetite, AE (any cause; all grades): 4 (18) n (%)
  Diarrhea, AE (any cause; all grades): 10 (46) n (%)
  Diarrhea, grade ≥3 adverse event: 2 (9) n (%)
  Febrile neutropenia, AE (any cause; all grades): 13 (59) n (%)
  Febrile neutropenia, grade ≥3 adverse event: 13 (59) n (%)
  Headache, AE (any cause; all grades): 5 (23) n (%)
  Hemorrhoids, AE (any cause; all grades): 4 (18) n (%)
  Hypertension, AE (any cause; all grades): 4 (18) n (%)
  Insomnia, AE (any cause; all grades): 4 (18) n (%)
  Musculoskeletal pain, AE (any cause; all grades): 4 (18) n (%)
  Nausea, AE (any cause; all grades): 11 (50) n (%)
  Neutropenia, AE (any cause; all grades): 4 (18) n (%)
  Neutropenia, grade ≥3 adverse event: 4 (18) n (%)
  Oropharyngeal pain, AE (any cause; all grades): 5 (23) n (%)
  Peripheral edema, AE (any cause; all grades): 9 (41) n (%)
  Petechiae, AE (any cause; all grades): 6 (27) n (%)
  Pneumonia, AE (any cause; all grades): 6 (27) n (%)
  Pneumonia, grade ≥3 adverse event: 3 (14) n (%)
  Pyrexia, AE (any cause; all grades): 5 (23) n (%)
  Rash, AE (any cause; all grades): 4 (18) n (%)
  Stomatitis, AE (any cause; all grades): 9 (41) n (%)
[6]; [11]
  Peripheral edema, patients: 41%
  Stomatitis, patients: 41%
[6]; [12]
  Alopecia, AE (any cause; all grades): 2 n
  Anemia, grade ≥3 adverse event: 2 n
  Any AE (any cause; all grades): 6 n
  Any grade ≥3 AE: 6 n
  Confusional state, AE (any cause; all grades): 2 n
  Constipation, AE (any cause; all grades): 3 n
  Cough, AE (any cause; all grades): 1 n
  Decreased appetite, AE (any cause; all grades): 2 n
  Diarrhea, AE (any cause; all grades): 5 n
  Diarrhea, grade ≥3 adverse event: 1 n
  Febrile neutropenia, AE (any cause; all grades): 4 n
  Febrile neutropenia, grade ≥3 adverse event: 4 n
  Headache, AE (any cause; all grades): 3 n
  Hemorrhoids, AE (any cause; all grades): 1 n
  Hypertension, AE (any cause; all grades): 0 n
  Insomnia, AE (any cause; all grades): 0 n
  Musculoskeletal pain, AE (any cause; all grades): 2 n
  Nausea, AE (any cause; all grades): 4 n
  Neutropenia, AE (any cause; all grades): 1 n
  Neutropenia, grade ≥3 adverse event: 1 n
  Oropharyngeal pain, AE (any cause; all grades): 1 n
  Peripheral edema, AE (any cause; all grades): 2 n
  Petechiae, AE (any cause; all grades): 3 n
  Pneumonia, AE (any cause; all grades): 3 n
  Pneumonia, grade ≥3 adverse event: 0 n
  Pyrexia, AE (any cause; all grades): 3 n
  Rash, AE (any cause; all grades): 2 n
  Stomatitis, AE (any cause; all grades): 3 n
  Stomatitis, grade ≥3 adverse event: 0 n
  Thrombocytopenia, grade ≥3 adverse event (grade 4): 1 n
  Vomiting, AE (any cause; all grades): 3 n
[6]; [13]
  Alopecia, AE (any cause; all grades): 4 n
  Anemia, grade ≥3 adverse event: 0 n
  Any AE (any cause; all grades): 13 n
  Any grade ≥3 AE: 12 n
  Confusional state, AE (any cause; all grades): 3 n
  Constipation, AE (any cause; all grades): 3 n
  Cough, AE (any cause; all grades): 3 n
  Decreased appetite, AE (any cause; all grades): 1 n
  Diarrhea, AE (any cause; all grades): 5 n
  Diarrhea, grade ≥3 adverse event: 1 n
  Febrile neutropenia, AE (any cause; all grades): 9 n
  Febrile neutropenia, grade ≥3 adverse event: 9 n
  Headache, AE (any cause; all grades): 2 n
  Hemorrhoids, AE (any cause; all grades): 3 n
  Hypertension, AE (any cause; all grades): 3 n
  Insomnia, AE (any cause; all grades): 3 n
  Musculoskeletal pain, AE (any cause; all grades): 2 n
  Nausea, AE (any cause; all grades): 6 n
  Neutropenia, AE (any cause; all grades): 2 n
  Neutropenia, grade ≥3 adverse event: 2 n
  Oropharyngeal pain, AE (any cause; all grades): 4 n
  Peripheral edema, AE (any cause; all grades): 7 n
  Petechiae, AE (any cause; all grades): 2 n
  Pneumonia, AE (any cause; all grades): 3 n
  Pneumonia, grade ≥3 adverse event: 3 n
  Pyrexia, AE (any cause; all grades): 2 n
  Rash, AE (any cause; all grades): 2 n
  Stomatitis, AE (any cause; all grades): 4 n
  Stomatitis, grade ≥3 adverse event: 2 n
  Thrombocytopenia, grade ≥3 adverse event (grade 4): 1 n
  Vomiting, AE (any cause; all grades): 2 n
[6]; [14]
  Alopecia, AE (any cause; all grades): 0 n
  Anemia, grade ≥3 adverse event: 0 n
  Any AE (any cause; all grades): 3 n
  Any grade ≥3 AE: 3 n
  Confusional state, AE (any cause; all grades): 0 n
  Constipation, AE (any cause; all grades): 0 n
  Cough, AE (any cause; all grades): 0 n
  Decreased appetite, AE (any cause; all grades): 1 n
  Diarrhea, AE (any cause; all grades): 0 n
  Diarrhea, grade ≥3 adverse event: 0 n
  Febrile neutropenia, AE (any cause; all grades): 0 n
  Febrile neutropenia, grade ≥3 adverse event: 0 n
  Headache, AE (any cause; all grades): 0 n
  Hemorrhoids, AE (any cause; all grades): 0 n
  Hypertension, AE (any cause; all grades): 1 n
  Insomnia, AE (any cause; all grades): 1 n
  Musculoskeletal pain, AE (any cause; all grades): 0 n
  Nausea, AE (any cause; all grades): 1 n
  Neutropenia, AE (any cause; all grades): 1 n
  Neutropenia, grade ≥3 adverse event: 1 n
  Oropharyngeal pain, AE (any cause; all grades): 0 n
  Peripheral edema, AE (any cause; all grades): 0 n
  Petechiae, AE (any cause; all grades): 1 n
  Pneumonia, AE (any cause; all grades): 0 n
  Pneumonia, grade ≥3 adverse event: 0 n
  Pyrexia, AE (any cause; all grades): 0 n
  Rash, AE (any cause; all grades): 0 n
  Stomatitis, AE (any cause; all grades): 2 n
  Stomatitis, grade ≥3 adverse event: 2 n
  Thrombocytopenia, grade ≥3 adverse event (grade 4): 0 n
  Vomiting, AE (any cause; all grades): 1 n
[6]; [16]
  ECG assessment: no clinically significant changes
  Vital signs, hematology, or clinical chemistry parameters: no clinically relevant adverse changes
[6]; [17]
  Dose interruptions due to AEs: Three
  Grade ≥3 febrile neutropenia, patients: 59%
  SAE febrile neutropenia: 36%
  SAE stomatitis: 9%
  SAEs considered related to study treatment: Five
  Serious AEs (SAEs), patients: 68%
Patients with AML [7]; barasertib monotherapy Phase I study
  Incidence of febrile neutropenia: 47%
Patients with AML [7]; barasertib
  Lowest dose associated with clinical activity: 400 mg
